Where two headings read alike, the source gives them in different places.
Biological target: T1, ACC (acetyl CoA carboxylase) purified from liver of male SD rat (Rattus norvegicus, UniProt P11497)
T1 construct: applied to a monomeric avidin sepharose column, and washed with buffer B. The ACC was eluted with buffer B containing 2 mM d-biotin; from tissue; host or cells: liver of male SD rat
Experiment: Measurement of ACC inhibition activity ([14C]-NaHCO3 incorporation)
Type: biochemical
Settings: read-out: ACC Inhibition (%)
Experimental: A male SD rat was deprived of food for two days and then fed a high-sucrose diet (component) for two days. While anesthetized with ether, the descending vena cava was cut upon, the animal was bled, and the liver was rapidly recovered. In an ice-cooled buffer solution A (225 mM mannitol, 75 mM sucrose, 10 mM Tris-HCl (pH 7.5), 0.05 mM EDTA, 5 mM potassium citrate, 2.5 mM MgCl2, 10 mg/L pepstatin A, 10 mg/L leupeptin, 1 mM PMSF), the liver was homogenized with a polytone homogenizer. A quantity of buffer A nine times the weight of the liver was added, the mixture was centrifuged for 10 minutes at 1,000 g, the supernatant was recovered, and the supernatant was centrifuged for another 10 minutes at 17,000 g.
Ammonium sulfate was added to 35 percent saturation to the obtained supernatant. The mixture was stirred for 45 minutes and then centrifuged for 10 minutes at 17,000 g. Buffer solution B (100 mM Tris-HCl (pH 7.5), 500 mM NaCl, 1 mM EDTA, 0.1 mM DTT, 10 percent glycerol, 10 mg/L pepstatin A, 10 mg/L leupeptin, 0.5 mM PMSF) was added to the obtained precipitate and dissolved. The solution was then centrifuged for 20 minutes at 40,000 g. The supernatant was dialyzed overnight against buffer C (100 mM Tris-HCl (pH 7.5), 500 mM NaCl, 1 mM EDTA, 0.1 mM DTT, 5 percent glycerol).
The dialyzed supernatant was passed through a […], applied to a monomeric avidin sepharose column, and washed with buffer B. The ACC was eluted with buffer B containing 2 mM d-biotin.
(2 Measurement of ACC Inhibition Activity)
The compounds synthesized in the above-described embodiments were dissolved in DMSO and charged to glass vials. 250 μL of ACC-containing reaction solution (40 mM Tris-HCl (pH 7.5), 40 mM MgCl2, 40 mM sodium citrate, and 2 mM DTT) was added. The mixture was heated for 30 minutes at 37° C. in a thermostatic chamber and then cooled with ice. To reaction solution 1 was added 250 μL of reaction solution 2 containing [14C]—NaHCO3 (40 mM Tris-HCl (pH 7.5), 2 mM DTT, 8 mM ATP, 0.5 mM acetyl CoA) and the mixture was heated for 10 minutes at 37° C. 100 μL of 1N HCl was added to stop the reaction. Water in the reaction solution was removed with a centrifugal evaporator, a scintillator was added, the solid component was dissolved, and the 14C radioactivity was measured with a liquid scintillation counter. The ACC inhibition activity of each compound was calculated from the following equation and converted to the ACC inhibition activity rate (%) at 1 μM.
ACC inhibition rate (%)=(1−(a−c)/(b−c))×100 a. Radioactivity when test drug added b: Radioactivity when test drug not added c: Blank* *Reaction solution 1 to which 100 μL of 1N HCl was added before mixing reaction solution 1 and reaction solution 2

[1] = ACC inhibition activity rate at 1 μM, Table 4-A, further compounds of Modes 2 and 3
[2] = ACC inhibition activity rate at 1 μM, Table 4-IV, Mode 4 benzenediamine compounds (numbers = x-IV)
[3] = ACC inhibition activity rate at 1 μM, Table 3-II, Mode 2 benzimidazole compounds (numbers = x-II)
[4] = ACC inhibition activity rate at 1 μM, Table 2-III, Mode 3 acetylene/oxadiazole/thiazole compounds (numbers = x-III)
[5] = ACC inhibition activity rate at 1 μM, Table 3-I, Mode 1 quinoline compounds (numbers = x-I)

Row | SMILES | inhibition at 1 µM [1] [%] | inhibition at 1 µM [2] [%] | other results
1 | CC(C)CCn1c(-c2ccccc2)nc2cc(-c3nc(-c4cccc(C(=O)NS(=O)(=O)c5ccccc5)c4)no3)ccc21 [Compound 9-II] | 72 |  | 
2 | Nc1ccc(S(=O)(=O)NC(=O)c2cccc(-c3nc(-c4ccc(-c5csc(-c6ccccc6)n5)cc4)no3)c2)cc1 [Compound 132-III] | 96 |  | 
3 | COC(=O)c1cccc(S(=O)(=O)NC(=O)c2cccc(-c3nc(-c4ccc(N(C)CCC(C)C)c(NCc5ccc(OCCO)cc5)c4)no3)c2)c1 [Compound 133-IV] |  | 99 | 
4 | CC(C)CCN(C)c1ccc(-c2noc(-c3cccc(C(=O)NS(=O)(=O)c4cccc(C(=O)O)c4)c3)n2)cc1NCc1ccc(OCCO)cc1 [Compound 134-IV] |  | 89 | 
5 | O=C(NS(=O)(=O)c1ccc(-c2nc(-c3ccc(-c4csc(-c5ccccc5)n4)cc3)no2)cc1)c1ccccc1 [Compound 135-III] | 98 |  | 
6 | O=C(NS(=O)(=O)c1cccc(-c2nc(-c3ccc(-c4csc(-c5ccccc5)n4)cc3)no2)c1)c1ccccc1 [Compound 136-III] | 94 |  | 
7 | Nc1ccccc1S(=O)(=O)NC(=O)c1cccc(-c2nc(-c3ccc(-c4csc(-c5ccccc5)n4)cc3)no2)c1 [Compound 137-III] | 96 |  | 
8 | CC(C)CCN(C)c1ccc(-c2noc(-c3cccc(C(=O)NS(=O)(=O)c4cn(C)cn4)c3)n2)cc1NCc1ccc(OCCO)cc1 [Compound 137-IV] |  | 79 | 
9 | O=C(NS(=O)(=O)c1cccc(-c2nc(-c3ccc(-c4csc(-c5ccccc5)n4)cc3)no2)c1)c1ccc(-n2ccnc2)cc1 [Compound 138-III] | 100 |  | 
10 | CC(C)CCN(C)c1ccc(C(=O)NC(CC(=O)NS(=O)(=O)c2ccc(C(=O)O)cc2)C2CCCCC2)cc1NCc1ccccc1 (centres unmarked) [Compound 138-IV] |  | 63 | 
11 | Cn1cnc(S(=O)(=O)NC(=O)c2cccc(-c3nc(-c4ccc(-c5csc(-c6ccccc6)n5)cc4)no3)c2)c1 [Compound 139-III] | 96 |  | 
12 | CC(C)CCN(C)c1ccc(-c2noc(-c3cccc(C(=O)NS(=O)(=O)c4cccc(C(=O)O)c4)c3)n2)cc1N(C)Cc1ccc(OCCO)cc1 [Compound 139-IV] |  | 100 | 
13 | COC(=O)c1ccc(S(=O)(=O)NC(=O)c2cccc(-c3nc(-c4ccc(-c5csc(-c6ccccc6)n5)cc4)no3)c2)cc1 [Compound 140-III] | 92 |  | 
14 | CCOP(=O)(/C=C/c1ccc(CNc2cc(-c3noc(-c4cccc(C(=O)NS(=O)(=O)c5ccccc5C)c4)n3)ccc2N(C)CCC(C)C)cc1)OCC [Compound 140-IV] |  |  | inhibition at 1 µM: 100%
15 | Cc1ccccc1S(=O)(=O)NC(=O)c1cccc(-c2nc(-c3ccc(-c4csc(-c5ccccc5)n4)cc3)no2)c1 [Compound 141-III] | 100 |  | 
16 | O=C(/C=C/c1ccccc1)NS(=O)(=O)c1cccc(-c2nc(-c3ccc(-c4csc(-c5ccccc5)n4)cc3)no2)c1 [Compound 142-III] | 100 |  | 
17 | CC(C)CCN(C)c1ccc(-c2noc(-c3cccc(C(=O)NS(=O)(=O)c4cn(C)cn4)c3)n2)cc1N(C)Cc1ccc(OCCO)cc1 [Compound 142-IV] |  | 93 | 
18 | O=C(NS(=O)(=O)c1cccc(-c2nc(-c3ccc(-c4csc(-c5ccccc5)n4)cc3)no2)c1)c1cccs1 [Compound 143-III] | 83 |  | 
19 | O=C(O)c1ccc(S(=O)(=O)NC(=O)c2cccc(-c3nc(-c4ccc(-c5csc(-c6ccccc6)n5)cc4)no3)c2)cc1 [Compound 144-III] | 97 |  | 
20 | CC(C)CCN(C)c1ccc(C(=O)N[C@H]2CCCC[C@H]2C(=O)NS(=O)(=O)c2ccccc2)cc1NCc1ccccc1 [Compound 144-IV] |  | 94 | 
21 | O=C(NS(=O)(=O)c1cccc(-c2nc(-c3ccc(-c4csc(-c5ccccc5)n4)cc3)no2)c1)c1cccnc1 [Compound 145-III] | 84 |  | 
22 | Cc1ccccc1S(=O)(=O)NC(=O)[C@@H]1CCCC[C@H]1NC(=O)c1ccc(N(C)CCC(C)C)c(NCc2ccccc2)c1 [Compound 145-IV] |  | 57 | 

Row | SMILES | inhibition at 1 µM [1] [%] | inhibition at 1 µM [2] [%] | other results
23 | COc1cccc(OC)c1C(=O)NS(=O)(=O)c1cccc(-c2nc(-c3ccc(-c4csc(-c5ccccc5)n4)cc3)no2)c1 [Compound 146-III] | 79 |  | 
24 | Cc1ccccc1S(=O)(=O)NC(=O)[C@@H]1CCCC[C@@H]1NC(=O)c1ccc(N(C)CCC(C)C)c(NCc2ccccc2)c1 [Compound 146-IV] |  | 72 | 
25 | CCN(CC)c1ccc(-c2csc(-c3ccc(-c4csc(-c5cccc(S(=O)(=O)NC(=O)c6ccncc6)c5)n4)cc3)n2)cc1 [Compound 147-III] | 65 |  | 
26 | CC(C)CCN(C)c1ccc(C(=O)NC(CC(=O)NS(=O)(=O)c2cn(C)cn2)C2CCCCC2)cc1NCc1ccccc1 (centres unmarked) [Compound 147-IV] |  | 68 | 
27 | CC(C)CCN(C)c1ccc(C(=O)NC(CC(=O)NS(=O)(=O)c2cn(C)cn2)C2CCCCC2)cc1N(C)Cc1ccccc1 (centres unmarked) [Compound 148-IV] |  | 63 | 
28 | Cc1ccccc1S(=O)(=O)NC(=O)CC(NC(=O)c1ccc(N(C)CCC(C)C)c(N(C)CCc2ccccc2)c1)C1CCCCC1 (centres unmarked) [Compound 153-IV] |  | 86 | 
29 | CN(c1ccc(C(=O)NC(CC(=O)NS(=O)(=O)c2ccccc2)C2CCCCC2)cc1NCCc1ccccc1)C1CC1 (centres unmarked) [Compound 157-IV] |  | 69 | 
30 | CN(c1ccc(C(=O)NC(CC(=O)NS(=O)(=O)c2ccccc2)C2CCCCC2)cc1NCCOCc1ccccc1)C1CC1 (centres unmarked) [Compound 158-IV] |  | 65 | 
31 | CC(C)CCN(C)c1ccc(C(=O)NC(CC(=O)NS(=O)(=O)c2cn(C)cn2)C2CCCCC2)cc1NCC1CCCCC1 (centres unmarked) [Compound 161-IV] |  | 71 | 
32 | CC(C)CCN(C)c1ccc(C(=O)NC(CC(=O)NS(=O)(=O)c2cn(C)cn2)C2CCCCC2)cc1NCCc1ccccc1 (centres unmarked) [Compound 162-IV] |  | 85 | 
33 | CCCCCC(=O)NS(=O)(=O)c1ccccc1NC(=O)c1ccc2c(c1)nc(-c1cc(C(F)(F)F)cc(C(F)(F)F)c1)n2CCC(C)C [compound 1] |  |  | inhibition at 1 µM [3]: 50%
34 | O=C(O)c1ccccc1-c1nc(-c2ccc(-c3nc(-c4cc(C(F)(F)F)cc(C(F)(F)F)c4)cs3)cc2)cs1 [compound 1] |  |  | inhibition at 1 µM [4]: 62%
35 | CCCCCC(=O)NS(=O)(=O)c1ccccc1NC(=O)c1ccc2c(c1)nc(-c1cc(C(F)(F)F)cc(C(F)(F)F)c1)n2-c1ccc(C(F)(F)F)cc1 [compound 2] |  |  | inhibition at 1 µM [3]: 92%
36 | O=C(Nc1ccccc1C(=O)O)c1ccc2nc(-c3cc(C(F)(F)F)cc(C(F)(F)F)c3)ccc2c1 [compound 3] |  |  | inhibition at 1 µM [5]: 53%
37 | CCCCCC(=O)NS(=O)(=O)c1ccccc1NC(=O)c1ccc2nc(-c3cccc(C(F)(F)F)c3)n(-c3ccccc3)c2c1 [compound 4] |  |  | inhibition at 1 µM [3]: 54%
38 | CCCCS(=O)(=O)NC(=O)c1ccccc1NC(=O)c1ccc2nc(-c3cc(C(F)(F)F)cc(C(F)(F)F)c3)ccc2c1 [compound 4] |  |  | inhibition at 1 µM [5]: 78%
39 | CC(C)(C)c1ccc(C(=O)NS(=O)(=O)c2ccccc2NC(=O)c2ccc3nc(-c4cccc(C(F)(F)F)c4)n(-c4ccccc4)c3c2)cc1 [compound 5] |  |  | inhibition at 1 µM [3]: 89%
40 | CCCCCC(=O)NS(=O)(=O)c1ccccc1NC(=O)c1ccc2nc(-c3cc(C(F)(F)F)cc(C(F)(F)F)c3)ccc2c1 [compound 7] |  |  | inhibition at 1 µM [5]: 72%
41 | CCCCCC(=O)NS(=O)(=O)c1ccccc1NC(=O)c1ccc(Nc2c(F)c(F)c(C(F)(F)F)c(F)c2F)c([N+](=O)[O-])c1 [compound 8] |  | 50 | 
42 | O=C(O)c1cccc(-c2noc(-c3ccc4c(c3)nc(-c3ccccc3)n4-c3ccc(C(F)(F)F)cc3)n2)c1 [compound 8] |  |  | inhibition at 1 µM [3]: 57%
43 | O=C(O)c1ccccc1S(=O)(=O)Nc1ccc(C#Cc2cccc(C(F)(F)F)c2)cc1 [compound 9] |  |  | inhibition at 1 µM [4]: 60%
44 | O=C(O)c1ccccc1C(=O)Nc1ccc(C#Cc2cccc(C(F)(F)F)c2)cc1 [compound 10] |  |  | inhibition at 1 µM [4]: 61%

Source: patent publication US7402696B2, “Benzene compounds” (Ajinomoto Co., Inc., priority 2004, dated 2008)
